Source: US20170273922A1, “UREA AND BIS-UREA BASED COMPOUNDS AND ANALOGUES THEREOF USEFUL IN THE TREATMENT OF ANDROGEN RECEPTOR MEDIATED DISEASES OR DISORDERS” (THE ROYAL INSTITUTION FOR THE ADVACEMENT OF LEARNING/MCGILL …, priority 2014, published 2017)
Entries after “also recorded” stand apart in the source; their conditions may differ. Values belong to the compound of their own block, whether it stands above or below them.

Assays:
[1] = test system: liver hepatocellular carcinoma; experiment: MTT assay (72 h), liver hepatocellular carcinoma cell line of Table 6.1; assay type: cell-based; conditions: HepG2 cells, 72 h treatment, read-out: Cytotoxicity (IC50, μM) HepG2
MCF-7 cells = experiment: MTT assay (cytotoxicity), MCF-7 cells; assay type: cell-based; conditions: 72 h treatment, Table 6.1
Procedure: (§1) MTT assays: LNCaP, 22Rv1, Du145, H1975, A549, MB231 and MCF-7 cells are maintained in RPMI 1640 supplemented with 10% FBS. Cells were seeded at a density of 6-7×10^3 cells per well in 96-well plates. After overnight incubation, cells in fresh RPMI 1640 supplemented with 10% FBS were exposed to DMSO vehicle control or test compounds at designated concentrations for 72 h. Viable cells were evaluated by MTT assays. Experiments were performed in triplicate and repeated at least twice.

DU145 cells = experiment: MTT assay (cytotoxicity), DU145 cells; assay type: cell-based; conditions: 72 h, Table 2.2
In short: (§2)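 Viable cell number was determined by MTT after cells in RPMI 1640 plus 10% FBS had been treated for 72 h with compounds at set concentrations, DMSO serving as vehicle control.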

full-length IRF3 = molecular target: T1, full-length IRF3 (Homo sapiens, UniProt Q14653); experiment: Full-length IRF3 ISRE-luc reporter assay; assay type: cell-based; conditions: PC3 cells, 24 h
T1 construct: co-transfected with full-length IRF3 or IRF3DBD-AR(1-547) expressing plasmids; expressed in transfected cells
T1 sequence (Q14653 1-427): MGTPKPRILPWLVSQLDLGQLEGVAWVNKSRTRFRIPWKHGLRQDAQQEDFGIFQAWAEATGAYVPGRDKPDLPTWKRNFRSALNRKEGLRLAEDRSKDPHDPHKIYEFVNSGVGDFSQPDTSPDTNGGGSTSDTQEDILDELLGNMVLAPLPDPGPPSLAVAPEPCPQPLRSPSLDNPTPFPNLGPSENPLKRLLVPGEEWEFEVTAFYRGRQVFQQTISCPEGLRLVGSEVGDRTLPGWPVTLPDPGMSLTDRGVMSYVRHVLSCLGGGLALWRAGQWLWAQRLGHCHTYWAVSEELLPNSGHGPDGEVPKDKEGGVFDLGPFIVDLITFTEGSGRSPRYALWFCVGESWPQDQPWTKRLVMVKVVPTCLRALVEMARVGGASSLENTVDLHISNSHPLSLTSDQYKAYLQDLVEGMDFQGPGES
Source text: For all of the others, cells were co-transfected with full-length IRF3 or IRF3DBD-AR(1-547) expressing plasmids and with the ISRE-luc reporter and pRL-TK plasmids. […] As IRF3DBD-AR(1-547) contains the DBD of IRF3, ISRE-luc reporter instead of the PSA-luc reporter was used in our assays.
HEK293 cells were co-transfected with IRF3DBD(1-133) or IRF3DBD-AR(1-547) or IRF3DBD-AR(181-547) or full-length IRF3 expressing plasmids and with the ISRE-luc reporter and the Renilla luciferase pRL-TK plasmids.
Here, IRF3-AR(1-547) is the fusion of IRF3 DBD with the AR NTD (1-547). […] The plasmids expressing IRF3-AR(1-547) (A) or wild-type IRF3 (B) or IRF3 DBD (for NT) as well as ISRE-luc and pRL-TK were transiently transfected into PC3 cells. […] Bic, bicalutamide; EPI, EPI-001.

LNCaP cells = experiment: MTT assay (cytotoxicity), LNCaP cells; assay type: cell-based
In short: as §2

VP16-AR(507-919) = VP16-AR(507-919) (NTD-deleted) PSA-luc reporter assay; conditions: 10 nM DHT, 24 h; PC3 or HEK293 cells
H1975 cells = experiment: MTT assay (cytotoxicity), H1975 cells; assay type: cell-based; conditions: 72 h treatment, Table 6.1
Procedure: as §1

MB231 cells = experiment: MTT assay (cytotoxicity), MB231 cells; assay type: cell-based; conditions: 72 h treatment, Table 6.1
Procedure: as §1

22Rv1 cells = experiment: MTT assay (cytotoxicity), 22Rv1 cells; assay type: cell-based
In short: as §2

A549 cells = experiment: MTT assay (cytotoxicity), A549 cells; assay type: cell-based; conditions: 72 h treatment, Table 6.1
Procedure: as §1

IRF3DBD-AR(1-547) = molecular target: T2, IRF3DBD-AR(1-547) (Homo sapiens, UniProt P10275); experiment: IRF3DBD-AR(1-547) ISRE-luc reporter assay; assay type: cell-based; conditions: PC3 cells, 24 h
T2 construct: IRF3-AR(1-547) is the fusion of IRF3 DBD with the AR NTD (1-547); expressed in transfected cells
T2 sequence (P10275 1-547): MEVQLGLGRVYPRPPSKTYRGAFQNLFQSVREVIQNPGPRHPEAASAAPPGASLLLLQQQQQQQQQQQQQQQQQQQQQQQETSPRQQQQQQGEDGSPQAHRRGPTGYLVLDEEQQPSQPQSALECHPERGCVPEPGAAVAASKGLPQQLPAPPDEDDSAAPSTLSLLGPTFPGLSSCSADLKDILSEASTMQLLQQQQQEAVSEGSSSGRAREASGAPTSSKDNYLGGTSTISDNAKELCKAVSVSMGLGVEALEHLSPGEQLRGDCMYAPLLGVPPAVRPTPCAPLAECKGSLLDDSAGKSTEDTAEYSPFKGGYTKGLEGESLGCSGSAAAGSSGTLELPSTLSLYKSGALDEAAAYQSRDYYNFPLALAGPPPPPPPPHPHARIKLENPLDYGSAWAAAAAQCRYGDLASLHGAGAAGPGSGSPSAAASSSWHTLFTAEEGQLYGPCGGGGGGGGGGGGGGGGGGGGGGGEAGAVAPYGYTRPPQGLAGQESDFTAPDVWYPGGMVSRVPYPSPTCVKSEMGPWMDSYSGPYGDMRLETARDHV

[2] = MTT assay (72 h), liver hepatocellular carcinoma cell line of Table 6.1; assay type: cell-based; conditions: human, HepG2 cells (liver hepatocellular carcinoma), 72 h treatment, read-out: Cytotoxicity (IC50, μM) HepG2
[3] = MTT assay (cytotoxicity), MCF-7 cells; assay type: cell-based; conditions: human, 72 h treatment, Table 6.1
Procedure: as §1

[4] = MTT assay (cytotoxicity), DU145 cells; assay type: cell-based; conditions: human, DU145 cells, Table 2.4
In short: as §2

[5] = MTT assay (cytotoxicity), LNCaP cells; assay type: cell-based; conditions: human, LNCaP cells, 72 h, Table 2.4
In short: as §2

[6] = MTT assay (cytotoxicity), H1975 cells; assay type: cell-based; conditions: human, 72 h treatment, Table 6.1
Procedure: as §1

[7] = MTT assay (cytotoxicity), MB231 cells; assay type: cell-based; conditions: human, 72 h treatment, Table 6.1
Procedure: as §1

[8] = MTT assay (cytotoxicity), 22Rv1 cells; assay type: cell-based; conditions: human, 22Rv1 cells, 72 h, Table 2.4
In short: as §2

[9] = MTT assay (cytotoxicity), A549 cells; assay type: cell-based; conditions: human, 72 h treatment, Table 6.1
Procedure: as §1

AR^v567es = molecular target: T3, AR^v567es (Homo sapiens, UniProt P10275); conditions: 25 μM; COS-1 cells; cited from earlier work
T3 construct: host or cells: COS-1

[10] = test system: endogenous AR-Vs in 22Rv1 cells; experiment: PSA-luc reporter assay in androgen-starved 22Rv1 cells (endogenous LBD-truncated AR variants); conditions: androgen-starved 3 days, 24 h exposure
Procedure: NT, LNCaP cells were transiently transfected with pIRES vector, PSA-luc and pRL-TK. […] Cells were then transiently transfected with PSA-Luc and pRL-TK and exposed to DMSO or compounds for 24 h, in triplicate. NT, not transfected with PSA-luc.
The ARs were probed by N-terminal directed AR antibody (N20, Santa Cruz); B) The 22Rv1 cells were androgen-starved (in phenol red-free medium+10% CS-FBS) for 3 days to ensure the full-length AR expressed in 22Rv1 are not activated. The 22Rv1 cells were subsequently co-transfected with PSA-luc and pRL-TK plasmids. […] Cells in phenol red-free medium+10% CS-FBS were exposed to DMSO or compounds for 24 h and harvested for Western blot analysis.
The cells were androgen-starved for 3 days and transfected with PSA-Luc and pRL-TK plasmids. NT, cells were transfected with empty vector. Cells were exposed to vehicle control or compounds for 24 h.

AR-v7 in LNCaP cells = molecular target: T4, AR-v7 in LNCaP cells (Homo sapiens, UniProt P10275); experiment: PSA-luc reporter assay in LNCaP cells transiently transfected with pIRES-AR-v7; conditions: 24 h
T4 sequence (P10275 1-644 isoform P10275-3): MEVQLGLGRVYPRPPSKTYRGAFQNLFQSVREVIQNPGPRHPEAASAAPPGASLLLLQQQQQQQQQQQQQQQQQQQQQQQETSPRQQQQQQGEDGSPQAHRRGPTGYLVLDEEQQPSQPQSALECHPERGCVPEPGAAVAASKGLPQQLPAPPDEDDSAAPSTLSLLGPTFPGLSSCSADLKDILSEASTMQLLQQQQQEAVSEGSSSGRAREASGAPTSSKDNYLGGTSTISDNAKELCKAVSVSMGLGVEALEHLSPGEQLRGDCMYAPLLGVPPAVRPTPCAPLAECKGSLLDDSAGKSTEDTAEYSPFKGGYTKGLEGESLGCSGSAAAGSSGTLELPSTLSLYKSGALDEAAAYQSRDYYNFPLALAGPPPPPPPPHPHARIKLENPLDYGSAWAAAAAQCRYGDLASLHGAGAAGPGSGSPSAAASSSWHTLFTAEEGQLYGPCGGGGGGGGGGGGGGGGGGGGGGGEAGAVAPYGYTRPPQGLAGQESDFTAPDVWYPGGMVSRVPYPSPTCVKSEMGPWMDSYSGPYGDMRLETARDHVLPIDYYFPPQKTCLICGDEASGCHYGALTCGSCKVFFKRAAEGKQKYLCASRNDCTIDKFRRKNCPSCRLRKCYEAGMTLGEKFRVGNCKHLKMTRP
Procedure: NT, LNCaP cells were transiently transfected with pIRES vector, PSA-luc and pRL-TK. […] Cells were then transiently transfected with PSA-Luc and pRL-TK and exposed to DMSO or compounds for 24 h, in triplicate.

AR-v7 = molecular target: T5, AR-v7 (Homo sapiens, UniProt P10275); experiment: AR-v7-dependent PSA-luc reporter assay in HEK293 cells; conditions: 25 μM
T5 sequence (P10275 1-644 isoform P10275-3): T4 sequence (P10275 1-644 isoform P10275-3)
Procedure: Cells were exposed to vehicle control or compounds at designated concentrations (μM) for 48 h.

[11] = LNCaP cells, 72 h treatment, Table 6.1
[12] = 22Rv1 cells, 72 h treatment, Table 6.1

T3 sequence (P10275 with tags, fused parts or gaps limits assumed): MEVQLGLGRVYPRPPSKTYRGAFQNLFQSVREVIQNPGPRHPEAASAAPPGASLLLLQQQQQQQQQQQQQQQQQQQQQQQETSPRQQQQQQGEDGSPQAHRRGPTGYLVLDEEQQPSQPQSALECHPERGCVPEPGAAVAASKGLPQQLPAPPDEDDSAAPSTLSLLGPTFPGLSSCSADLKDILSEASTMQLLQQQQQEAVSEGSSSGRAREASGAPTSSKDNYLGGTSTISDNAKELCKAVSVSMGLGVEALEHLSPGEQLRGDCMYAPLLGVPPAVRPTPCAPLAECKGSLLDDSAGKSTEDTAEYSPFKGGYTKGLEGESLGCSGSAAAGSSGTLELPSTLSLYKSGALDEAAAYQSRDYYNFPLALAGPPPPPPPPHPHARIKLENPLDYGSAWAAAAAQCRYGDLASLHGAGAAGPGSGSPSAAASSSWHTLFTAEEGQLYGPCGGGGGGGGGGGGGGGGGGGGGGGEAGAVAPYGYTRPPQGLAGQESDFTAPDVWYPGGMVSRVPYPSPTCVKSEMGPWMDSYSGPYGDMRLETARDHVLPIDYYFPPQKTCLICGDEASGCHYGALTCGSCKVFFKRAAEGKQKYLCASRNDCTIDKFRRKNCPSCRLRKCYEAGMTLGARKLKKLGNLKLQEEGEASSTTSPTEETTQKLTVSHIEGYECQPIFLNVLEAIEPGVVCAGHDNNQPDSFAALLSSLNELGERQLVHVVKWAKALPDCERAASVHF

SMILES: N#Cc1ccc(NC(=O)N/C=C/c2cccc(C(F)(F)F)c2)cc1C(F)(F)F [Compound 410]
- IC50 [1]: 0.92 µM
- IC50 (MCF-7 cells): 2.6 µM
- IC50 (DU145 cells): 10.4 µM
- activity against wild-type IRF3 (ISRE-luc) (full-length IRF3): inactive
- IC50 (LNCaP cells; 72 h, Table 2.2): 4.4 µM
- IC50 (LNCaP cells; [11]): 1.8 µM
- inhibition of DHT-induced activation of VP16-AR(507-919) (PSA-luc) (VP16-AR(507-919)): inactive
- IC50 (H1975 cells): 2.5 µM
- IC50 (MB231 cells): 4 µM
- IC50 (22Rv1 cells; [12]): 2.5 µM
- IC50 (A549 cells): 2.7 µM
- inhibition of IRF3-AR(1-547)-dependent ISRE-luc reporter activity (IRF3DBD-AR(1-547)): potently inhibit

SMILES: N#Cc1ccc(NC(=O)N/C=C/c2cccs2)cc1C(F)(F)F [Compound 428]
- IC50 at 72 h [2]: 2.4 µM
- IC50 at 72 h [3]: 5.2 µM
- IC50 at 72 h [4]: 5.1 µM
- activity against wild-type IRF3 (ISRE-luc) (full-length IRF3): inactive
- IC50 at 72 h [5]: 2.1 µM
- inhibition of DHT-induced activation of VP16-AR(507-919) (PSA-luc) (VP16-AR(507-919)): inactive
- IC50 at 72 h [6]: 7.7 µM
- IC50 at 72 h [7]: 7.6 µM
- IC50 at 72 h [8]: 3.7 µM
- IC50 at 72 h [9]: 4.7 µM
- inhibition of IRF3-AR(1-547)-dependent ISRE-luc reporter activity (IRF3DBD-AR(1-547)): potently inhibit

SMILES: O=C(N/C=C/c1cccc(C(F)(F)F)c1)Nc1cnccn1 [Compound 558]
- IC50 [1]: 0.14 µM
- IC50 (MCF-7 cells): < 0.5 µM
- IC50 (LNCaP cells; 72 h, Table 2.1): 0.06 µM
- IC50 (LNCaP cells; [11]): 0.06 µM
- IC50 (H1975 cells): 2.4 µM
- IC50 (MB231 cells): 0.3 µM
- IC50 (22Rv1 cells; [12]): 0.1 µM
- IC50 (22Rv1 cells; 72 h, Table 2.1): 0.1 µM
- IC50 (A549 cells): 0.09 µM

- activity in LNCaP cells with forced expression of AR-v7 (PSA-luc) (AR-v7 in LNCaP cells): remain active
- inhibition of constitutive activation of AR-v7 (PSA-luc) (AR-v7): inhibit; also recorded: active
SMILES: CC(C)(c1ccc(OCC(O)CO)cc1)c1ccc(OCC(O)CCl)cc1 (stereo not drawn) [EPI-001, reference compound]
- suppression of constitutive activation of AR^v567es in PSA-Luc reporter assay (AR^v567es): half
- activity against constitutive activation of endogenous AR-Vs in 22Rv1 cells (PSA-luc) [10]: active
